Results: patent US20030229079A1 (published 2003)

## O=C(CC(=O)c1cccn1Cc1ccc(F)cc1)c1ccncn1
  melting point: 128 to 129 °C
